How the values were obtained:
Experiment in all cases: NCI-60 one-dose screening
Type in all cases: cell-based
[1] = tested on: MDA-MB-231/ATCC; conditions: Homo sapiens, Breast Cancer, read-out: GI (%)
[2] = tested on: A498; conditions: Homo sapiens, A498, Renal Cancer, read-out: GI (%)
[3] = tested on: K-562; conditions: Homo sapiens, K562, K-562, Leukemias, read-out: GI (%)
[4] = tested on: MDA-MB-435; conditions: Homo sapiens, MDA-MB-435, Melanoma, read-out: GI (%)
[5] = tested on: SW-620; conditions: Homo sapiens, SW-620, Colon Cancer, read-out: GI (%)
[6] = tested on: SK-MEL-2; conditions: Homo sapiens, SK-MEL-2, Melanoma, read-out: GI (%)
[7] = tested on: MDA-MB-468; conditions: Homo sapiens, MDA-MB-468, Breast Cancer, read-out: GI (%)
[8] = tested on: OVCAR-8; conditions: Homo sapiens, OVCAR-8, Ovarian Cancer, read-out: GI (%)
[9] = tested on: 786-0; conditions: Homo sapiens, 786-0, Renal Cancer, read-out: GI (%)
[10] = tested on: A549/ATCC; conditions: Homo sapiens, Non-Small Cell Lung Cancer, read-out: GI (%)
[11] = tested on: TK-10; conditions: Homo sapiens, TK-10, Renal Cancer, read-out: GI (%)
[12] = tested on: SF-268; conditions: Homo sapiens, SF-268, CNS Cancer, read-out: GI (%)
[13] = tested on: OVCAR-4; conditions: Homo sapiens, OVCAR-4, 10 μM; OVCAR-4, Ovarian Cancer; read-out: GI (%)
[14] = tested on: HCC-2998; conditions: Homo sapiens, HCC-2998, Colon Cancer, read-out: GI (%)
[15] = tested on: OVCAR-3; conditions: Homo sapiens, OVCAR-3, 10 μM; OVCAR-3, Ovarian Cancer; read-out: GI (%)
[16] = tested on: HCT-15; conditions: Homo sapiens, HCT-15, Colon Cancer, read-out: GI (%)
[17] = tested on: UO-31; conditions: Homo sapiens, UO-31, Renal Cancer, read-out: GI (%)
[18] = tested on: UACC-62; conditions: Homo sapiens, UACC-62, Melanoma, read-out: GI (%)
[19] = tested on: MCF7; conditions: Homo sapiens, MCF7, 10 μM; MCF7, Breast Cancer; read-out: GI (%)
[20] = tested on: PC-3; conditions: Homo sapiens, PC-3, Prostate Cancer, read-out: GI (%)
[21] = tested on: SF-539; conditions: Homo sapiens, SF-539, CNS Cancer, read-out: GI (%)

SMILES | inhibition at 10 µM [1] | inhibition at 10 µM [2] | inhibition at 10 µM [3] | inhibition at 10 µM [4] | inhibition at 10 µM [5] | inhibition at 10 µM [6] | inhibition at 10 µM [7] | inhibition at 10 µM [8] | inhibition at 10 µM [9] | inhibition at 10 µM [10] | inhibition at 10 µM [11] | inhibition at 10 µM [12] | inhibition at 10 µM [13] | inhibition at 10 µM [14] | inhibition at 10 µM [15] | inhibition at 10 µM [16] | inhibition at 10 µM [17] | inhibition at 10 µM [18] | inhibition at 10 µM [19] | inhibition at 10 µM [20] | other results
COc1cc(C=C2C(=O)Nc3ccccc32)ccc1OCc1ccccc1 (mixture of isomers) [6a] | 5.3% | -0.19% | 3.5% | -3.92% | 9.55% | -10.6% | 8.69% | -0.93% | -0.73% | -9.96% | -40.3% | -1% | 3.22% | -19.5% | 11% | 12.2% | 25.3% | 7.55% | 35.7% | 5.85% | inhibition at 10 µM [21]: 0.76%
COc1cc(C=C2C(=O)Nc3ccccc32)ccc1OCc1ccccn1 (mixture of isomers) [6e] | 18.1% | 22.2% | 19.6% | -7.05% | -0.45% | -1.21% | 14.2% | 0.31% | 1.32% | -7.19% | -51.2% | 6.47% | 8.74% | -16.2% | 0.9% | 20% | 30.7% | 11.6% | 50 to 65% | 7.05% | inhibition at 10 µM [21]: 15.1%
COc1cc(C=C2C(=O)Nc3cc(Cl)ccc32)ccc1OCc1ccc(Cl)cc1 (mixture of isomers) [6l] | 8.37% | 5.41% | 9.88% | -5.52% | 2.57% | -8.37% | 4.61% | 2.85% | -7.1% | -5.86% | -59.6% | -5.63% | 25.6% | -18.5% | -3.06% | 6.77% | 22.2% | 11.1% | 50 to 65% | 11.1% | inhibition at 10 µM [21]: 8.46%
COc1cc(/C=C2/C(=O)Nc3ccccc32)ccc1OCc1ccc(Cl)cc1 [6b] | 1% | -15.1% | 1.45% | -6.4% | 3.4% | -5.45% | -1.64% | -1.64% | -6.18% | -7.18% | -35.9% | 1.43% | 0.89% | -23.5% | -5.51% | 6.05% | 18.7% | 12.4% | 30.5% | 5.22% | inhibition at 10 µM [21]: 1.99%
COc1cc(/C=C2/C(=O)Nc3ccccc32)ccc1OCc1ccc(F)cc1 [6c] | -0.03% | 10.8% | -3.95% | -3.45% | -5.55% | -7.35% | -2.14% | -1.99% | -6.73% | -7.83% | -29.6% | -5.39% | -2.67% | -18.9% | -16.7% | -1.14% | 15.3% | 7.29% | 12.2% | -0.92% | inhibition at 10 µM [21]: -2.09%
COc1ccc(COc2ccc(/C=C3/C(=O)Nc4ccccc43)cc2OC)cc1 [6d] | 0.09% | -10.3% | -0.85% | -6.21% | 0.87% | -8.22% | -0.39% | -0.59% | -4.67% | -9.19% | -13.4% | -3% | 0.17% | -2.21% | -14.7% | -4.57% | 19.6% | 3.29% | 6% | 4.22% | inhibition at 10 µM [21]: 4.08%
COc1cc(/C=C2/C(=O)Nc3cc(Cl)ccc32)ccc1OCc1ccccc1 [6k] | 8.09% | -15.1% | 3.86% | -4.45% | 2.54% | -5.05% | 7.61% | 0.19% | -8.46% | -8.61% | -55.6% | -1.04% | 10.4% | 0.85% | -3.45% | 6.47% | 16.2% | 6.07% | 31% | 6.35% | inhibition at 10 µM [21]: 5.85%
COc1cc(/C=C2/C(=O)Nc3cc(Cl)ccc32)ccc1OCc1ccc(F)cc1 [6m] | 7.87% | 5.75% | 2.33% | -3.13% | 1.76% | 0.15% | 7.02% | 1.34% | -7.88% | -9.5% | -85.2% | -0.8% | 16.8% | 3.17% | -1.69% | 10.9% | 20.2% | 11.2% | 42.9% | 13% | inhibition at 10 µM [21]: 4.99%
COc1ccc(COc2ccc(/C=C3/C(=O)Nc4cc(Cl)ccc43)cc2OC)cc1 [6n] | 5.7% | 6.39% | -2.8% | -5.13% | 3.63% | -0.29% | 7.72% | 1.31% | -6.9% | -12.9% | -64.4% | 0.26% | 17.6% | -22.2% | -5.39% | 0.12% | 18.6% | 12.2% | 24% | 7.65% | inhibition at 10 µM [21]: 9.72%
COc1cc(/C=C2/C(=O)Nc3cc(Cl)ccc32)ccc1OCc1ccccn1 [6o] | 13.4% | -7.62% | 8.79% | -6.9% | 0.42% | -8.06% | -3.25% | -2.7% | -11.2% | -15.6% | -69.3% | -6.37% | 3.45% | -11.7% | -15.5% | 7.58% | 16.6% | 6.45% | 27.7% | 2.25% | inhibition at 10 µM [21]: 4.76%

— article PMC9948168, “Vanillin-Based Indolin-2-one Derivative Bearing a Pyridyl Moiety as a Promising Anti-Breast Cancer Agent via Anti-Estrogenic Activity” (ACS Omega, 2023)
